The record followed here is ChEMBL document CHEMBL5634193, “Discovery of CVN293, a Brain Permeable KCNK13 (THIK-1) Inhibitor Suitable for Clinical Assessment” (ACS Med Chem Lett, 2024).

The target of data set [1] is T1, Potassium channel subfamily K member 13 (Homo sapiens, UniProt Q9HB14).
T1 sequence (Q9HB14 whole entry): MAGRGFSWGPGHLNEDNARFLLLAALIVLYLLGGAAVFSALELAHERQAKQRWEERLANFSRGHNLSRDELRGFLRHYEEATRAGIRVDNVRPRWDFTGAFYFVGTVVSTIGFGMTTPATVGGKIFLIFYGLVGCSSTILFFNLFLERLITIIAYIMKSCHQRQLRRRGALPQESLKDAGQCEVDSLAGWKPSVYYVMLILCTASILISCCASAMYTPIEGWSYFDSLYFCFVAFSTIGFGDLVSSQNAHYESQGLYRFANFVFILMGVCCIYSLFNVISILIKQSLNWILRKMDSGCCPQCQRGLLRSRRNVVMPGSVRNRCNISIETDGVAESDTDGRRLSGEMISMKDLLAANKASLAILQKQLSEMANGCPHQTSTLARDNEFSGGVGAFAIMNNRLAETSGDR
The data set is described as follows: Inhibition of human KCNK13 transfected in HEK293 cells. It is filed as cell-based.

Data set [2] can be described thus: Metabolic stability in human liver microsomes assessed as intrinsic clearance. It is filed as ADME, Microsome. Particulars: read-out: CLH.
Data set [3] can be described thus: Metabolic stability in rat liver microsomes assessed as intrinsic clearance. In kind it is ADME, Microsome. Particulars: read-out: CLH. Background: Liver microsomes are vesicles of endoplasmic reticulum, rich in cytochrome P450 enzymes.
Data set [4] can be described thus: Metabolic stability in mouse liver microsomes assessed as intrinsic clearance. The settings on record: read-out: CLH. In kind it is ADME, Microsome.
Data set [5] is described as follows: Protein binding in mouse plasma assessed as unbound fraction by equilibrium dialysis. In kind it is ADME, cell-free.
Data set [6] in a line: Protein binding in mouse brain assessed as unbound fraction by equilibrium dialysis. It is filed as ADME, tissue-based. For orientation: In equilibrium dialysis free small molecules cross a membrane that holds back macromolecules.
A short description of data set [7]: Kinetic aqueous solubility of compound at pH 7.4. Particulars: buffer, read-out: Kinetic_solubility. It is filed as physicochemical.
Data set [8] deals with T2, Potassium channel subfamily K member 13 (Mus musculus, UniProt Q8R1P5).
T2 sequence (Q8R1P5 whole entry): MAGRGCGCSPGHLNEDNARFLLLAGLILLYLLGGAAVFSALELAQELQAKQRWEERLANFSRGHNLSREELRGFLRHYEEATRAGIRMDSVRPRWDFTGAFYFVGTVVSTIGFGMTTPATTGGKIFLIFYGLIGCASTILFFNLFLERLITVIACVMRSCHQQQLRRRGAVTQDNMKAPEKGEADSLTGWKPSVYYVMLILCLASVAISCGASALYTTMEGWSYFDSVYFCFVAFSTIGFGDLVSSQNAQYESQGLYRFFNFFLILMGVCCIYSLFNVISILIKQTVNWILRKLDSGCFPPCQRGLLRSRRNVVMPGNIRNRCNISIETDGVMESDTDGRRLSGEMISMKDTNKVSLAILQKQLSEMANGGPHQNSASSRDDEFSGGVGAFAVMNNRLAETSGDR
The data set is described as follows: Inhibition of mouse KCNK13 transfected in HEK293 cells. It is filed as cell-based.

Data set [9] is described as follows: Unbound drug concentration in C57BL/6 mouse plasma at 10 mg/kg, po measured after 4 hrs by LC-MS/MS analysis. Particulars: in vivo. It is filed as ADME, organism-based.
The nature of data set [10]: Unbound drug concentration in C57BL/6 mouse brain at 10 mg/kg, po measured after 4 hrs by LC-MS/MS analysis. In kind it is ADME, organism-based. Particulars: in vivo.
Data set [11] can be described thus: Ratio of drug concentration in brain to plasma C57BL/6 mouse at 10 mg/kg, po measured after 4 hrs by LC-MS/MS analysis. It is filed as ADME, organism-based. Particulars: brain and plasma, read-out: BPR.
The nature of data set [12]: Ratio of unbound drug concentration in brain to plasma C57BL/6 mouse at 10 mg/kg, po measured after 4 hrs by LC-MS/MS analysis. It is filed as ADME, organism-based. The settings on record: brain and plasma, read-out: K(p,uu,brain).

Converted amounts (≈) assume the structure as drawn.

`Cc1nonc1-c1nc2ccccc2n1Cc1ccncc1` displayed an IC50 in [1] of 89 nM. For the same compound, the microsomal CLint amounted to 45 µL/min/mg in data set [2] and 47 µL/min/mg in data set [3].

Take `Nc1ncccc1-c1nc2ccccc2n1Cc1ccncc1`: the IC50 in data set [1] is > 22000 nM.

In data set [1], `Nc1nonc1-c1nc2cccc(F)c2n1Cc1ccncn1` displayed an IC50 of 46 nM. For the same compound, the microsomal CLint is 10 µL/min/mg in [2], 77 µL/min/mg in [3] and 30 µL/min/mg in data set [4]. Further, the fraction unbound in [5] amounted to 0.111; in data set [6], 0.091. Also, the solubility kinetic in [7] was 9.9 µM (≈ 3.08 µg/mL).

For `Nc1nonc1-c1nc2cccc(F)c2n1Cc1ccncc1`, it took 46 nM to reach half-maximal inhibition in data set [1] (IC50). In addition, the microsomal CLint in data set [2] is 14 µL/min/mg; in data set [3], 22 µL/min/mg; in data set [4] it was 66 µL/min/mg. Besides, in data set [7], the solubility kinetic is 3.7 µM (≈ 1.15 µg/mL).

As for `Nc1nonc1-c1nc2ccccc2n1Cc1ccncc1`, the microsomal CLint in [2] was 24 µL/min/mg; in data set [3], 56 µL/min/mg.

On to `N#Cc1ccc(Cn2c(-c3nonc3N)nc3cccc(F)c32)nn1`, for which the IC50 is 50 nM in data set [1] and 35 nM in data set [8]. The results for the microsomal CLint in [2], in [3] and in data set [4] were 9.6 µL/min/mg, 40 µL/min/mg and 37 µL/min/mg, respectively. Also, the fraction unbound is 0.071 in data set [5] and 0.064 in data set [6]. Moreover, the solubility kinetic in data set [7] was 8.4 µM (≈ 2.82 µg/mL).

For `Nc1nonc1-c1nc2cccc(F)c2n1Cc1cnccn1`, the values for the IC50 in data set [1] and in data set [8] were 47 nM and 62 nM, respectively. For the same compound, the microsomal CLint worked out at 21 µL/min/mg in [2], 68 µL/min/mg in [3] and 50 µL/min/mg in data set [4]. In addition, the fraction unbound stood at 0.138 in data set [5] and 0.077 in data set [6]. Also, the solubility kinetic in data set [7] worked out at 10 µM (≈ 3.11 µg/mL). The “Cp(f)” value in [9] was found to be 9 nM; in [10], 18 nM. Besides, the Kp at 4 h in data set [11] was determined as 0.56. Besides, the Kp uu at 4 h in data set [12] was determined as 2.2.

Take `CC(=O)Nc1nonc1-c1nc2ccccc2n1Cc1ccncc1`: the IC50 in [1] is > 22000 nM. The microsomal CLint in data set [2] was determined as 34 µL/min/mg; in data set [3], 45 µL/min/mg.

On to `Nc1nonc1-c1nc2cccc(F)c2n1Cc1ccc(C(F)(F)F)nn1`, for which the IC50 amounted to 84 nM in data set [1] and 74 nM in [8]. The microsomal CLint in data set [2] was 18.3 µL/min/mg; in data set [4], 245 µL/min/mg. Also, the fraction unbound in [5] stood at 0.035; in data set [6] it was 0.024. Besides, the solubility kinetic in data set [7] was determined as 1.6 µM (≈ 0.607 µg/mL).

On to `Nc1nonc1-c1nc2ccc(F)cc2n1Cc1ccncc1`, for which half-maximal inhibition in data set [1] (IC50) required 34 nM. Further, the microsomal CLint worked out at 37 µL/min/mg in data set [2], 10 µL/min/mg in data set [3] and 58 µL/min/mg in data set [4]. The solubility kinetic in [7] is < 0.3 µM.

Compound `Nc1nonc1-c1nc2cccc(F)c2n1Cc1ccnnc1` displayed an IC50 in data set [1] of 50 nM. Besides, the microsomal CLint in [2] stood at 9.6 µL/min/mg; in data set [3], 31.6 µL/min/mg; in data set [4] it was 13.9 µL/min/mg. The fraction unbound stood at 0.188 in data set [5] and 0.128 in [6]. In addition, the solubility kinetic in data set [7] came out at 10.4 µM (≈ 3.24 µg/mL). Moreover, the “Cp(f)” value in [9] was determined as 9 nM; in [10], 18 nM. The Kp at 4 h in [11] was 0.68. Moreover, the Kp uu at 4 h in data set [12] is 1.9.

For the compound `Nc1nonc1-c1nc2cccc(F)c2n1Cc1cncnc1`, the figures for the IC50 in [1] and in [8] were 49 nM and 26 nM, respectively. The figures for the microsomal CLint in data set [2], in [3] and in data set [4] were 10 µL/min/mg, 24 µL/min/mg and 18 µL/min/mg, respectively. Further, the values for the fraction unbound in [5] and in data set [6] were 0.129 and 0.057, respectively. The solubility kinetic in [7] was 6.5 µM (≈ 2.02 µg/mL).

In turn, `Nc1nonc1-c1nc2ccc(F)c(F)c2n1Cc1cccnn1` yielded an IC50 in data set [1] of 50 nM. For the same compound, the microsomal CLint is < 9.6 µL/min/mg in data set [2], 15.4 µL/min/mg in [3] and < 9.6 µL/min/mg in data set [4]. Besides, the free fraction (fraction unbound) in data set [5] was 0.161; in data set [6], 0.097. Moreover, in data set [7], the solubility kinetic came to 3.9 µM (≈ 1.28 µg/mL). For the same compound, the “Cp(f)” value in [9] came to 80 nM; in [10] it was 56 nM. Also, in data set [11], the Kp at 4 h was found to be 1.17. The Kp uu at 4 h in [12] stood at 0.7.

Take `c1ccc2c(c1)nc(-c1cocn1)n2Cc1ccncc1`: the IC50 in [1] stood at 2940 nM.

In turn, `Nc1nonc1-c1nc2cc(F)ccc2n1Cc1ccncc1` came in with an IC50 in [1] of 42 nM. The microsomal CLint in data set [2] stood at 19 µL/min/mg; in data set [3], 14 µL/min/mg; in data set [4], 28 µL/min/mg. The solubility kinetic in data set [7] is < 0.3 µM.

`c1ccc2c(c1)nc(-c1ccn[nH]1)n2Cc1ccncc1` displayed an IC50 in [1] of 9200 nM.

In [1], `c1ccc2c(c1)nc(-c1ncc[nH]1)n2Cc1ccncc1` gave an IC50 of 3430 nM.

Turning to `Nc1nonc1-c1nc2c(F)ccc(F)c2n1Cc1cccnn1`, the values for the IC50 in data set [1] and in data set [8] were 37 nM and 42 nM, respectively. Also, the microsomal CLint in data set [2] was determined as 9.6 µL/min/mg; in data set [3] it was 12.6 µL/min/mg; in data set [4], 10.1 µL/min/mg. The fraction unbound in data set [5] is 0.159; in data set [6], 0.13. In addition, the solubility kinetic in data set [7] is 12.9 µM (≈ 4.25 µg/mL). The “Cp(f)” value is 793 nM in data set [9] and 630 nM in data set [10]. Further, in data set [11], the Kp at 4 h amounted to 0.96. Moreover, the Kp uu at 4 h in data set [12] is 0.8.

Take `Nc1nonc1-c1nc2c(F)cccc2n1Cc1ccncc1`: 55 nM corresponded to half-maximal inhibition in data set [1] (IC50). In addition, the figures for the microsomal CLint in data set [2], in [3] and in data set [4] were 25 µL/min/mg, 27 µL/min/mg and 74 µL/min/mg, respectively. Further, the solubility kinetic in data set [7] is < 0.3 µM.

By IC50 is commonly meant the midpoint of a concentration-inhibition curve. Read a high IC50 as weaker potency. For orientation: fraction unbound means free concentration divided by total concentration.
